Source: patent US12559505B2, “IDH mutant inhibitor and use thereof” (WIGEN BIOMEDICINE TECHNOLOGY (SHANGHAI) CO., LTD., priority 2020, dated 2026)
Where two headings read alike, the source gives them in different places.

What was measured:
[1] = test system: 2-HG in HT1080 tumor tissues; experiment: Detection of 2-HG in HT1080 tumor tissues of nude mice; type: in vivo; details: Mus musculus, HT-1080, sc, subcutaneous HT1080, 20 mg/kg
Protocol: Nude mice were inoculated subcutaneously with 1×10^6 HT1080 cells. When the tumor volume reached 100-150 mm^3, the mice were randomly grouped into solvent control group and compounds 1, 70, 79, 85, 96, 139, 157 and LY-3410738 20 mg/kg groups. The tumors were collected three days and seven days after continuous administration, weighed, digested with a digestion solution and then homogenized. The level of 2-HG in the tumor tissues were determined by LC-MS-MS. The percentage inhibition of compounds on 2-HG in tumor tissues was calculated as compared with the control.

IDH R132C = target: T1, IDH R132C (Homo sapiens, UniProt O75874, R132C); experiment: Detection of 2-HG in supernatant of U87-IDH R132C cells; type: cell-based; details: 72 h, LC-MS-MS, vs control; for inhibition at 0.001 µM: 1 nM compound, read-out: Inhibition rate of compounds on 2-HG in the supernatant of U87-IDH R132C cells, 1 nM; for inhibition at 0.01 µM: 10 nM compound, read-out: Inhibition rate of compounds on 2-HG in the supernatant of U87-IDH R132C cells, 10 nM; for inhibition at 0.1 µM: 100 nM compound, read-out: Inhibition rate of compounds on 2-HG in the supernatant of U87-IDH R132C cells, 100 nM
T1 construct: expressed in transfected cells; host or cells: U87 cells
T1 sequence (O75874 whole entry R132C): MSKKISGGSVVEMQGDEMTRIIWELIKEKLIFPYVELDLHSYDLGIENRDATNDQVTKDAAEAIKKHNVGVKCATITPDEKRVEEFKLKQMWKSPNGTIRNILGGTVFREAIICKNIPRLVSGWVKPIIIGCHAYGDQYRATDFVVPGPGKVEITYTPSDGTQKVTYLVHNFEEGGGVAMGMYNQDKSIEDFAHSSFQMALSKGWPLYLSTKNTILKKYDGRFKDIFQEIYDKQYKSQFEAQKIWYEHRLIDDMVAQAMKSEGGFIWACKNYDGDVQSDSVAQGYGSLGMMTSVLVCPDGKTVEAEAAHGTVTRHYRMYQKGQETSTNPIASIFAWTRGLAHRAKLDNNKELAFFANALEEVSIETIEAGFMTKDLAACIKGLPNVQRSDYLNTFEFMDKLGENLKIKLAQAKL
Protocol: U87 cells overexpressing the IDH R132C mutation were seeded in a 48-well plate at 50,000 cells/well. After the cells were incubated overnight for adhesion, the supernatant was removed. The cell culture media containing serially diluted compounds were added, and the cells were incubated for 72 h. After 72 h, the cultures were collected and diluted 10-fold with water, and acetonitrile was added to extract the metabolites. The 2-HG content in the cultures was analyzed by LC-MS-MS, and the percentage inhibition of compounds on 2-HG in the supernatant was calculated as compared with the control.

[2] = 72 h, three days of continuous administration, read-out: Inhibition rate of compounds on 2-HG in HT1080 tumor tissues, 3 days
[3] = 168 h, seven days of continuous administration, read-out: Inhibition rate of compounds on 2-HG in HT1080 tumor tissues, 7 days

inhibition at 0.001 µM (IDH R132C) [%] | inhibition at 0.01 µM (IDH R132C) [%] | inhibition at 0.1 µM (IDH R132C) [%] | Compound | inhibition in vivo at 20 mg/kg [1, 2] [%] | inhibition in vivo at 20 mg/kg [1, 3] [%]
60 to 90 | > 90 | > 90 | C=CC(=O)N1CCN(C(CC2CC2)c2ccc([C@H](C)Nc3ncc4cnc(=O)n(C(C)C)c4n3)cc2)CC1 (stereo partly drawn) [Compound 85, 7-(((1S)-1-(4-(1-(4-acryloylpiperazin-1-yl)-2-cyclopropylethyl)phenyl)ethyl)amino)-1-isopropylpyrimidine[4,5-d]pyrimidine-2(1H)-one] | 57 ± 6 | 94 ± 3
60 to 90 | > 90 | > 90 | C=CC(=O)N1CCN(C(CC23CC(C2)C3)c2ccc([C@H](C)Nc3ncc4c(n3)N(CC)C(=O)OC4)cc2)CC1 (stereo partly drawn) [Compound 157] | 60 ± 8 | 90 ± 7
30 to 60 | > 90 | > 90 | C=CC(=O)N1CCN([C@@H](CC2CC2)c2ccc([C@H](C)Nc3ncc4c(n3)N(CC)C(=O)OC4)cc2)CC1 [LY-3410738, reference compound] | 58 ± 11 | 88 ± 12
